These results are taken from patent publication US6124290A, “Polycyclic phthalazine compounds and their use” (Gruenenthal GmbH, priority 1996, dated 2000).

In brackets after ≈: the same amount, converted by molar mass. Where two headings read alike, the source gives them in different places. Bounds are passed on as bounds.

Experiment [1] deals with Enterococcus faecium 64/3. Briefly: MIC, micro-broth dilution test according to DIN 58 940 (Part 8). The format is cell-based. Conditions: for MIC: Enterococcus faecium. Here is the method:
(§1) The minimum inhibiting concentration (MIC) of the compounds was tested, in a micro-broth dilution test according to DIN 58 940 (Part 8), against the following bacterial strains: Staphylococcus aureus, strains 8325-4 (a sensitive Staphylococcus aureus strain which is representative of the species), NCTC 6571 (a sensitive international control strain), 108/83 (an "old" MRSA without quinolone-resistance), 134/94 (a "new" MRSA, with quinolone-resistance), Staphylococcus epidermidis CCM 2124 (a sensitive control strain), Enterococcus faecium 70/90 (a vancomycin-resistant strain) and 64/3 (a sensitive strain).
On the technique in general: Dilution methods test growth across graded concentrations, often in twofold steps.

The test system of experiment [2] is Enterococcus faecium 70/90. Described as above. The format is cell-based. Conditions: for MIC: Enterococcus faecium. Here is the method:
as §1, with “strain). The known substances vancomycin, teicoplanin and ciprofloxacin were used for comparison in the tests, even though they are structurally different.” for “strain).”

For experiment [3], the system named is Staphylococcus aureus 8325-4. Described as above. The class given is cell-based. Here is the method:
as §1, with “strain). The known substances vancomycin, teicoplanin and ciprofloxacin were used for comparison in the tests, even though they are structurally different.” for “strain).”

Experiment [4] deals with Staphylococcus aureus 108/83. Described as above. The class given is cell-based. Conditions: for MIC: Staphylococcus aureus, read-out: MIC, Staphylococcus aureus 108/83. How it is done:
as §1, with “strain). The known substances vancomycin, teicoplanin and ciprofloxacin were used for comparison in the tests, even though they are structurally different.” for “strain).”

Experiment [5] relates to Staphylococcus epidermidis CCM 2124. The description is as above. The format is cell-based. Conditions: for MIC: Staphylococcus epidermidis. Here is the method: as §1, with “strain). The known substances vancomycin, teicoplanin and ciprofloxacin were used for comparison in the tests, even though they are structurally different.” for “strain).”
Experiment [6] has as its system Staphylococcus aureus 134/94. The experiment is described as above. The class given is cell-based. Conditions: for MIC: Staphylococcus aureus, read-out: MIC, Staphylococcus aureus 134/94. How it is done:
as §1, with “strain). The known substances vancomycin, teicoplanin and ciprofloxacin were used for comparison in the tests, even though they are structurally different.” for “strain).”

For experiment [7], the system named is Staphylococcus aureus NCTC 6571. The experiment is described as above. The class given is cell-based. Conditions: NCTC6571, sensitive international control strain. Here is the method: as §1, with “strain). The known substances vancomycin, teicoplanin and ciprofloxacin were used for comparison in the tests, even though they are structurally different.” for “strain).”

The conditions of experiment [8]: background section; cited from earlier work.
Setting [9] is: "old" MRSA, without quinolone-resistance.
Where [10] appears, read: "new" MRSA, with quinolone-resistance.
[11] abbreviates: Staphylococcus aureus, 83254, read-out: MIC, Staphylococcus aureus 8325-4.
[12] abbreviates: CCM2124, read-out: MIC, Staphylococcus epidermidis CCM 2124.
The mark [13] stands for this setting: 83254, sensitive Staphylococcus aureus strain, representative of the species, read-out: MIC, Staphylococcus aureus 8325-4.
Where [14] appears, read: 64/3, sensitive strain, read-out: MIC, Enterococcus faecium 64/3.
Where [15] appears, read: 70/90, vancomycin-resistant strain, read-out: MIC, Enterococcus faecium 70/90.
Setting [16] is: CCM2124, sensitive control strain, read-out: MIC, Staphylococcus epidermidis CCM 2124.

Regarding teicoplanin, in experiment [1] (sensitive strain), the “MIC, Enterococcus faecium 64/3” value was under 0.25 mg/mL. The “MIC, Enterococcus faecium 70/90” value in experiment [2] (vancomycin-resistant strain) worked out at 256 mg/mL. Besides, the “MIC, Staphylococcus aureus 8325-4” value in experiment [3] (sensitive Staphylococcus aureus strain, representative of the species) is 0.5 mg/mL. Further, in experiment [4] (setting [9]), the “MIC, Staphylococcus aureus 108/83” value turned out to be 0.5 mg/mL. The “MIC, Staphylococcus epidermidis CCM 2124” value in experiment [5] (sensitive control strain) was found to be 0.5 mg/mL. Also, the “MIC, Staphylococcus aureus 134/94” value in experiment [6] (setting [10]) was 0.5 mg/mL.
For the compound `O=C(O)c1cn(C2CC2)c2cc(N3CCNCC3)c(F)cc2c1=O` [ciprofloxacin], the MIC in experiment [2] (70/90, read-out: MIC, Enterococcus faecium 70/90) was found to be 1000 µg/mL (≈ 3020 µM); in experiment [3] (setting [11]), 250 µg/mL (≈ 754 µM); in experiment [4] (MRSA), 250 µg/mL (≈ 754 µM); in experiment [5] (setting [12]), 250 µg/mL (≈ 754 µM); in experiment [6] (MRSA), 16000 µg/mL (≈ 48300 µM).
As for `CCC(C(=O)O)n1ncc2cc3c(c(O)c2c1=O)-c1c(O)c2c(c(OC)c1CC3)C(=O)c1c(cc(O)c(C)c1O)C2=O` (racemic) [Substance 4], the MIC came to 63 µg/mL (≈ 110 µM) in experiment [3] (setting [13]), 32 µg/mL (≈ 55.9 µM) in experiment [4] (setting [9]) and 16 µg/mL (≈ 27.9 µM) in experiment [6] (setting [10]).
As to `CN[C@H](CC(C)C)C(=O)N[C@H]1C(=O)N[C@@H](CC(N)=O)C(=O)N[C@H]2C(=O)N[C@H]3C(=O)N[C@H](C(=O)N[C@H](C(=O)O)c4cc(O)cc(O)c4-c4cc3ccc4O)[C@H](O)c3ccc(c(Cl)c3)Oc3cc2cc(c3O[C@@H]2O[C@H](CO)[C@@H](O)[C@H](O)[C@H]2O[C@H]2C[C@](C)(N)[C@H](O)[C@H](C)O2)Oc2ccc(cc2Cl)[C@H]1O` [vancomycin], the MIC in experiment [1] (64/3, read-out: MIC, Enterococcus faecium 64/3) was under 250 µg/mL; in experiment [3] (setting [11]), 500 µg/mL (≈ 345 µM); in experiment [4] (MRSA), 500 µg/mL (≈ 345 µM); in experiment [5] (setting [12]), 500 µg/mL (≈ 345 µM); in experiment [6] (MRSA), 500 µg/mL (≈ 345 µM).
For the compound `COc1c2c(c(O)c3c1C(=O)c1c(cc(O)c(C)c1O)C3=O)-c1c(cc3cnn(-c4ccc(C(=O)O)cc4)c(=O)c3c1O)CC2` [Substance 1], the MIC was 500 µg/mL (≈ 824 µM) in experiment [1] (setting [14]); 500 µg/mL (≈ 824 µM) in experiment [2] (setting [15]); 500 µg/mL (≈ 824 µM) in experiment [3] (setting [13]); under 125 µg/mL in experiment [7]; 250 µg/mL (≈ 412 µM) in experiment [4] (setting [9]); under 125 µg/mL in experiment [5] (setting [16]). Moreover, the MIC in experiment [6] (setting [10]) turned out to be 500 µg/mL (≈ 824 µM).
In the case of `COc1c2c(c(O)c3c1C(=O)c1c(cc(O)c(C)c1O)C3=O)-c1c(cc3cnn(CC(=O)O)c(=O)c3c1O)CC2` [Substance 3, 10,12, 15,16-tetrahydroxy-8-methoxy-2-carboxynmethyl-11-methyl-1,9,14-trioxo-1,2,6,7,9,14-hexahydro-naphthaceno-[1,2-g]-phthalazine], the MIC was 500 µg/mL (≈ 918 µM) in experiment [1] (setting [14]); 2000 µg/mL (≈ 3670 µM) in experiment [2] (setting [15]); 63 µg/mL (≈ 116 µM) in experiment [3] (setting [13]); under 125 µg/mL in experiment [7]; 63 µg/mL (≈ 116 µM) in experiment [4] (setting [9]); under 125 µg/mL in experiment [5] (setting [16]). In addition, the MIC in experiment [6] (setting [10]) was found to be 250 µg/mL (≈ 459 µM).
For `COc1c2c(c(O)c3c1C(=O)c1c(cc(O)c(C)c1O)C3=O)-c1c(cc3c(c1O)C(=O)OC3O)CC2` (stereo not shown) [Madurahydroxylactone, 3,9,11,14,15-pentahydroxy-10-methyl-7-methoxy-1,8,13-trioxo-1,3,5,6,8,13-hexahydro-naphthaceno-[1,2-f]-benzoisofurane], the biological efficacy result in experiment [8] is given as “unsatisfactory biological efficacy”.
